Data as given in US10611760B2, “Therapeutic compounds as inhibitors of the orexin-1 receptor” (C4X Discovery Limited, priority 2014, dated 2020).
pIC50: −log10 of the molar value.

Assays:
Assay type in all cases: cell-based
[1] = molecular target: T1, hOX2R (Homo sapiens, UniProt O43614); test: Whole cell FLIPR functional assay, comparison with reference compounds, hOX2R; set-up: expressed in transfected cells; conditions: read-out: hOX2R pIC50 (converted)
T1 sequence (O43614 1-444): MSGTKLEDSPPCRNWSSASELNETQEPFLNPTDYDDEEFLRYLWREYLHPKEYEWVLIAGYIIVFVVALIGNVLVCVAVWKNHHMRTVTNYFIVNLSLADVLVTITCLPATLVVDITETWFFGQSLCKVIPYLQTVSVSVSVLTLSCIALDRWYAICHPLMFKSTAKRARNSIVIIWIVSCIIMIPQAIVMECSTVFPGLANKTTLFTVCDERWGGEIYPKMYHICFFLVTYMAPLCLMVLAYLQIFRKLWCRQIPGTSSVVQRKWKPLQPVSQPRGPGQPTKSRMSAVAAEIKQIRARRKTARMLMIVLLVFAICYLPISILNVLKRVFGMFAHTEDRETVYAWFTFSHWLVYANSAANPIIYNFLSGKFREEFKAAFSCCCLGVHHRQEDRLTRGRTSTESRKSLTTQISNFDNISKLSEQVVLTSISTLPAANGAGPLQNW
Source text: (§1) As indicated herein, by whole cell FLIPR functional assay data and by comparison with reference compounds not claimed within the present invention, the compounds of the present invention provide increased selectivity for the orexin-1 receptor over the orexin-2 receptor. The increased selectivity for the orexin-1 receptor over the orexin-2 receptor in the whole cell FLIPR functional assay provides enhanced predictive value for determining in vivo efficacy. Increasing the functional selectivity for the orexin-1 receptor reduces the potential for dual receptor antagonism in vivo. Such greater functional selectivity may provide benefits over other orexin receptor antagonists that are known in the art.

[2] = molecular target: T2, hOX1R (Homo sapiens, UniProt O43613); test: Whole cell FLIPR functional assay, comparison with reference compounds, hOX1R; set-up: expressed in transfected cells; conditions: for Selectivity: orexin-1 receptor over orexin-2 receptor; for IC50: read-out: hOX1R pIC50 (converted)
T2 sequence (O43613 1-425): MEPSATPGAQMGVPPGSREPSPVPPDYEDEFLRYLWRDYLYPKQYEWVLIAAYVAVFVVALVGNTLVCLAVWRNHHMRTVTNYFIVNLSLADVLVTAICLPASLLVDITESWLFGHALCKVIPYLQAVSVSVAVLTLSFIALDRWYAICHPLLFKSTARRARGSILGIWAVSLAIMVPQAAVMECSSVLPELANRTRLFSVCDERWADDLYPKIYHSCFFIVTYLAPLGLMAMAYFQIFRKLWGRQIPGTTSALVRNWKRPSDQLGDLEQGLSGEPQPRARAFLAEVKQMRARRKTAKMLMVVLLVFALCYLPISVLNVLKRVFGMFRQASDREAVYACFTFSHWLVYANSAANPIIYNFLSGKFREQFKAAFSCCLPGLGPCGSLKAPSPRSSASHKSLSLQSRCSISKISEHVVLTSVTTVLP
Source text: as §1

[3] = molecular target: T3, orexin-1 (Homo sapiens, UniProt O43613); test: Antagonism against orexin-1 in the aforementioned (above identified) intracellular calcium assays
T3 construct: expressed in transfected cells
T3 sequence (O43613 1-425): T2 sequence (O43613 1-425)
Source text: Antagonism against orexin receptors has been measured for each example compound using at least one of the following procedures. […] These values may fluctuate depending on the daily cellular assay performance. Fluctuations of this kind are known to those skilled in the art. […] Data highlighted with an asterix (*) is derived from a single experiment, otherwise all data reported is an average of at least two independant replicate experiments. […]

[4] = molecular target: T2, hOX1R; test: Intracellular calcium measurements using division-arrested cells, OX1; conditions: agonist orexin A at 2×EC50, * = single experiment, otherwise average of at least two, read-out: pIC50 OX1 (converted)
How it was run: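 Division-arrested cells expressing human OX1 or OX2 were seeded for 16 h, then loaded with Calcium 5 dye plus probenecid for 1 h at 37 °C. Compounds in HEPES-buffered HBSS with 0.1% BSA, pH 7.4, top final concentration 10 μM, were added 10 min before the FlexStation calcium read.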

pIC50 [3] | SMILES | IC50 [1] [nM] | Selectivity [2] | IC50 [2] [nM] | IC50 [4] [nM]
– | CC(C)[C@H](CNc1ccc(Cl)cn1)N(C)C(=O)c1ccccc1-c1ccccc1 | 2000 | Selectivity 1.9x | 1000 | –
– | CN(CCNc1ccc(Cl)cn1)C(=O)c1ccccc1-c1ccccc1 | 79.4 | Selectivity 1.1x | 63.1 | –
< 5.00 | CC[C@@H](CNc1ccc(Cl)cn1)NC(=O)c1cc(C)ccc1N1CCOCC1 [(S)—N-(1-((5-chloropyridin-2-yl)amino)butan-2-yl)-5-methyl-2-morpholinobenzamide] | – | – | – | –
< 5.00 | CC[C@@H](CNc1ccc(Cl)cn1)N(C)C(=O)c1nc(C)ncc1-n1nccn1 [(S)—N-(1-((5-chloropyridin-2-yl)amino)butan-2-yl)-N,2-dimethyl-5-(2H-1,2,3-triazol-2-yl)pyrimidine-4-carboxamide] | – | – | – | –
< 5.00 | CC[C@@H](CNc1ccc(Cl)cn1)N(C)C(=O)c1cc(C)ccc1N1CCN(C)CC1 [(S)—N-(1-((5-chloropyridin-2-yl)amino)butan-2-yl)-N,5-dimethyl-2-(4-methylpiperazin-1-yl)benzamide] | – | – | – | –
5.31 | CC[C@@H](CNc1ccc(Cl)cn1)N(C)C(=O)c1cc(C(F)(F)F)ccc1-n1ccnn1 [(S)—N-(1-((5-chloropyridin-2-yl)amino)butan-2-yl)-N-methyl-2-(1H-1,2,3-triazol-1-yl)-5-(trifluoromethyl)benzamide] | – | – | – | –
< 5.00 | CC[C@@H](CNC(=O)c1ccccn1)N(C)C(=O)c1cc(Cl)ccc1-n1nccn1 [(S)—N-(2-(5-chloro-N-methyl-2-(2H-1,2,3-triazol-2-yl)benzamido)butyl)picolinamide] | – | – | – | –
– | CC(C)[C@@H](CNc1ccc(Cl)cn1)N(C)C(=O)c1ccccc1-c1ccccc1 [Example 10, (S)—N-(1-((5-chloropyridin-2-yl)amino)-3-methylbutan-2-yl)-N-methyl-[1,1′-biphenyl]-2-carboxamide] | 6310 | Selectivity 80x | 79.4 | 79.4
< 5.00 | Cc1ccc(-n2nccn2)c(C(=O)N(C)C(CNc2ccc(Cl)cn2)C2COC2)c1 (stereo not shown) [N-(2-((5-chloropyridin-2-yl)amino)-1-(oxetan-3-yl)ethyl)-N,5-dimethyl-2-(2H-1,2,3-triazol-2-yl)benzamide] | – | – | – | –
